Assay results taken from patent US6342335B1, “Polymethine compounds, method of producing same, and use thereof” (Yamamoto Chemicals, Inc., priority 1999, dated 2002).

How the values were obtained:
[1] = Solubility test in methyl ethyl ketone; type: physicochemical; details: 25° C. overnight, visual inspection for insoluble matter
Description: The solubility of the polymethine compound of the invention in methyl ethyl ketone as well as the solubilities of said known Compound A and Compound B were measured. Solubility measurements were carried out by the following method.
A 5 ml screw tube was charged with 200 mg of each polymethine compound and 1 ml of methyl ethyl ketone and agitated for dissolution with Mix-Rotor at 25° C. overnight. Each sample was visually inspected for insoluble matter. When no insoluble residue was found, the solubility was rated ≧20%. When an insoluble residue was found, the solubility was rated less than 20%.

[2] = Maximum absorption wavelength (λmax) in diacetone alcohol; type: physicochemical
Description: The maximum absorption wavelength (λmax) of the polymethine compound of the present invention in diacetone alcohol as well as those of known Compound A and Compound B were measured.

Solubility (g/ml) [1]	λmax [2] [nm]	SMILES
≧20%	822	COCCN1/C(=C\C=C2/CCCC(/C=C/C3=[N+](CCOC)c4c(C)cc(OC)cc4C3(C)C)=C2Cl)C(C)(C)c2cc(OC)cc(C)c21 [Compound (55), 2-(2-{2-chloro-3-[(1,3-dihydro-3,3,7-trimethyl-5-methoxy-1-methoxyethyl-2H-indol-2-ylidene)ethylidene]-1-cyclohexen-1-yl}ethenyl)-3,3,7-trimethyl-5-methoxy-1-methoxyethylindolium=tetrafluoroborate]
	788	COCCN1/C(=C\C=C2/CCCC(/C=C/C3=[N+](CCOC)c4ccccc4C3(C)C)=C2Cl)C(C)(C)c2ccccc21 [Compound A, reference compound]
